Measurements published in patent publication US9556165B2 (priority 2012, dated 2017).
In brackets after ≈: the same amount, converted by molar mass.

Legend:
Format in all cases: cell-based
C. perfringens DSM756 = assay: microbe, parasite or virus in culture; conditions: Clostridium perfringens, DSM756, read-out: strain 16 MIC, strain 16
M. catarrhalis ICB489 = assay: MIC determination, broth microdilution (CLSI); conditions: Moraxella catarrhalis, ICB489, strain 12
strain 20 = assay: MIC determination, broth microdilution (CLSI)
[1] = system: P. aeruginosa 2297 (AmpC wt); assay: MIC determination, broth microdilution (CLSI); conditions: Pseudomonas aeruginosa, strain 7
C. freundii K21/3034 = assay: MIC determination, broth microdilution (CLSI); conditions: Citrobacter freundii, K21/3034, strain 4
S. pneumoniae 113 = assay: MIC determination, broth microdilution (CLSI); conditions: Streptococcus pneumoniae, 113, strain 14; read-out: strain 14 MIC
B. fragilis 6688 = assay: MIC determination, broth microdilution (CLSI); conditions: Bacteroides fragilis, 6688, strain 15; read-out: strain 15 MIC
A. baumannii ATCC15308 = assay: MIC determination, broth microdilution (CLSI); conditions: Acinetobacter baumannii, ATCC15308, strain 9
strain 21 = assay: MIC determination, broth microdilution (CLSI)
H. influenzae ATCC 49247 = assay: MIC determination, broth microdilution (CLSI); conditions: Haemophilus influenzae, ATCC49247, strain 13; read-out: strain 13 MIC
S. aureus 133 = assay: MIC determination, broth microdilution (CLSI); conditions: Staphylococcus aureus, 133, strain 11; read-out: strain 11 MIC
E. coli J62 = assay: MIC determination, broth microdilution (CLSI); conditions: Escherichia coli, J62, strain 17; read-out: strain 17 MIC
P. aeruginosa PAO1 = assay: MIC determination, broth microdilution (CLSI); conditions: Pseudomonas aeruginosa, PAO1, strain 6
E. coli J62-TEM-3 = assay: MIC determination, broth microdilution (CLSI); conditions: Escherichia coli, J62TEM3, read-out: strain 18 MIC, strain 18
[2] = system: P. aeruginosa 2297-con (AmpC derepressed); assay: MIC determination, broth microdilution (CLSI); conditions: Pseudomonas aeruginosa, read-out: strain 8 MIC, strain 8
E. cloacae 34654 = assay: MIC determination, broth microdilution (CLSI); conditions: Enterobacter cloacae, 34654, strain 3
K. pneumoniae 60 = assay: MIC determination, broth microdilution (CLSI); conditions: Klebsiella pneumoniae, 60, strain 2
M. morganii 126/3048 = assay: MIC determination, broth microdilution (CLSI); conditions: Morganella morganii, 126/3048, strain 5
strain 19 = assay: MIC determination, broth microdilution (CLSI)
E. coli ATCC25922 = assay: MIC determination, broth microdilution (CLSI); conditions: Escherichia coli, ATCC25922, strain 1
S. maltophilia ICB7569 = assay: MIC determination, broth microdilution (CLSI); conditions: Stenotrophomonas maltophilia, ICB7569, strain 10

Compound | MIC (C. perfringens DSM756) [µg/mL] | MIC (M. catarrhalis ICB489) [µg/mL] | MIC (strain 20) [µg/mL] | MIC [1] [µg/mL] | MIC (C. freundii K21/3034) [µg/mL] | MIC (S. pneumoniae 113) [µg/mL] | MIC (B. fragilis 6688) [µg/mL] | MIC (A. baumannii ATCC15308) [µg/mL] | MIC (strain 21) [µg/mL] | MIC (H. influenzae ATCC 49247) [µg/mL] | MIC (S. aureus 133) [µg/mL] | MIC (E. coli J62) [µg/mL] | MIC (P. aeruginosa PAO1) [µg/mL] | MIC (E. coli J62-TEM-3) [µg/mL] | MIC [2] [µg/mL] | MIC (E. cloacae 34654) [µg/mL] | MIC (K. pneumoniae 60) [µg/mL] | MIC (M. morganii 126/3048) [µg/mL] | MIC (strain 19) [µg/mL] | MIC (E. coli ATCC25922) [µg/mL] | further results
CC1(C)[C@H](NC(=O)/C(=N\OCCOc2ccnc(C(=N)N)c2)c2csc(N)n2)C(=O)N1OS(=O)(=O)O [Example 15, (2Z)-2-(2-Amino-1,3-thiazol-4-yl)-2-({2-[(2-carbamimidoylpyridin-4-yl)oxy]ethoxy}imino)-N-[(3S)-2,2-dimethyl-4-oxo-1-(sulfooxy)azetidin-3-yl]ethanamide] | 0.5 (≈ 0.922 µM) | ≤ 0.063 | 0.5 (≈ 0.922 µM) | 8 (≈ 14.7 µM) | 0.5 (≈ 0.922 µM) | 2 (≈ 3.69 µM) | 2 (≈ 3.69 µM) | 2 (≈ 3.69 µM) | 0.5 (≈ 0.922 µM) | ≤ 0.063 | ≤ 0.063 | 1 (≈ 1.84 µM) | 8 (≈ 14.7 µM) | 8 (≈ 14.7 µM) | 8 (≈ 14.7 µM) | 1 (≈ 1.84 µM) | 1 (≈ 1.84 µM) | 0.5 (≈ 0.922 µM) | 0.5 (≈ 0.922 µM) | 0.5 (≈ 0.922 µM) | MIC (S. maltophilia ICB7569): 4 µg/mL (≈ 7.37 µM)
CC1(C)[C@H](NC(=O)/C(=N\OCCOc2cc(C(=N)N)ccn2)c2csc(N)n2)C(=O)N1OS(=O)(=O)O [Example 22, (2Z)-2-(2-Amino-1,3-thiazol-4-yl)-2-({2-[(4-carbamimidoylpyridin-2-yl)oxy]ethoxy}imino)-N-[(3S)-2,2-dimethyl-4-oxo-1-(sulfooxy)azetidin-3-yl]ethanamide] | 2 (≈ 3.69 µM) | 0.125 (≈ 0.23 µM) | 1 (≈ 1.84 µM) | 32 (≈ 59 µM) | 0.5 (≈ 0.922 µM) | 2 (≈ 3.69 µM) | 4 (≈ 7.37 µM) | 4 (≈ 7.37 µM) | 1 (≈ 1.84 µM) | ≤ 0.063 | ≤ 0.063 | 1 (≈ 1.84 µM) | 16 (≈ 29.5 µM) | 8 (≈ 14.7 µM) | 16 (≈ 29.5 µM) | 1 (≈ 1.84 µM) | 1 (≈ 1.84 µM) | 1 (≈ 1.84 µM) | 0.5 (≈ 0.922 µM) | 1 (≈ 1.84 µM) | MIC (S. maltophilia ICB7569): 4 µg/mL (≈ 7.37 µM)
CC1(C)[C@H](NC(=O)/C(=N\OCCOc2ccc(C(=N)NC3CCNCC3)cc2)c2csc(N)n2)C(=O)N1OS(=O)(=O)O [Example 23, (2Z)-2-(2-Amino-1,3-thiazol-4-yl)-N-[(3S)-2,2-dimethyl-4-oxo-1-(sulfooxy)azetidin-3-yl]-2-[(2-{4-[N-(piperidin-4-yl)carbamimidoyl]phenoxy}ethoxy)imino]ethanamide] | 2 (≈ 3.2 µM) | ≤ 0.063 | 0.125 (≈ 0.2 µM) | 2 (≈ 3.2 µM) | 0.125 (≈ 0.2 µM) | 1 (≈ 1.6 µM) | 4 (≈ 6.4 µM) | 0.5 (≈ 0.8 µM) | 0.25 (≈ 0.4 µM) | ≤ 0.063 | ≤ 0.063 | 0.25 (≈ 0.4 µM) | 2 (≈ 3.2 µM) | 1 (≈ 1.6 µM) | 2 (≈ 3.2 µM) | 0.5 (≈ 0.8 µM) | 0.25 (≈ 0.4 µM) | 0.5 (≈ 0.8 µM) | 0.125 (≈ 0.2 µM) | 0.125 (≈ 0.2 µM) | MIC (S. maltophilia ICB7569): 16 µg/mL (≈ 25.6 µM)
CC1(C)[C@H](NC(=O)/C(=N\OCCOc2ccc(C(=N)NCCN)cc2)c2csc(N)n2)C(=O)N1OS(=O)(=O)O [Example 24, (2Z)-2-[(2-{4-[N-(2-Aminoethyl)carbamimidoyl]phenoxy}ethoxy)imino]-2-(2-amino-1,3-thiazol-4-yl)-N-[(3S)-2,2-dimethyl-4-oxo-1-(sulfooxy)azetidin-3-yl]ethanamide] | 2 (≈ 3.42 µM) | ≤ 0.063 | 0.25 (≈ 0.428 µM) | 4 (≈ 6.84 µM) | 0.125 (≈ 0.214 µM) | 2 (≈ 3.42 µM) | 2 (≈ 3.42 µM) | 1 (≈ 1.71 µM) | 0.5 (≈ 0.855 µM) | ≤ 0.063 | ≤ 0.063 | 0.125 (≈ 0.214 µM) | 2 (≈ 3.42 µM) | 2 (≈ 3.42 µM) | 2 (≈ 3.42 µM) | 0.25 (≈ 0.428 µM) | 0.25 (≈ 0.428 µM) | 0.125 (≈ 0.214 µM) | 0.125 (≈ 0.214 µM) | 0.125 (≈ 0.214 µM) | MIC (S. maltophilia ICB7569): 8 µg/mL (≈ 13.7 µM)
